# Results published in patent US10544151B2, “Compounds and uses thereof” (Kala Pharmaceuticals, Inc., priority 2013, dated 2020).
# Legend:
# [1] = Physical and chemical stability of I-2 solutions at room temperature; format: physicochemical; details: F127 (0.5%), 20 mM Tris (pH 8)
# Description: Solutions of I-2 were formulated with F127 or Tween 80, and under a range of pH values. Briefly, I-2 was first completely solubilized using an acidic solution (0.1 N HCl) at a high concentration of ˜5% (wiv). The final formulation was diluted to a solution consisting of 0.5% (wiv) I-2 into buffered solution containing F127 or Tween 80 as described in Table 5. Following dilution, the pH of the formulations was measured using pH indicator strips (PEHANON) and confirmed to be within expected range (±0.5 units of target pH).
# Physical and chemical stability of the solutions at room temperature (20-25° C.) were assessed after 7-10 days (tfinal). Physical instability in a solution can manifest as the precipitation and sedimentation of the drug of interest and excipients over time. To assess physical stability, the formulations at tfinal were first filtered through a 300 kDa modified polyethersulfone filter membrane (Nanosep) to remove any precipitate in the solution. The concentration of I-2 in the filtrates was then measured and compared to that at t=0. The purity of I-2 in the unfiltered solution was also evaluated at tfinal, to further confirm chemical stability. This parameter is defined by the area under the signal peak that is attributed to compound I-2 as a percentage of all peaks reported by in the sample by HPLC (% peak area).
# [2] = Draize-Ocular Irritation assessment; format: in vivo, Dutch-belted rabbits; details: topical I-2 solution formulations, during PK studies
compound,measurement,setting,value
Cc1cc(C(=O)Nc2cc(Oc3ccc4nc(NC(=O)CN5CC[C@H](N(C)C)C5)cn4n3)ccc2C)n(C)n1 [Compound I-2],physical stability of solution,[1],major physical instability
same,Draize-Ocular Irritation,[2],no irritation
